# Results reported in patent publication US5733913A, “6-Aryl pyrido[2,3-d] pyrimidines and naphthyridines for inhibiting protein tyrosine kinase mediated cellular proliferation” (priority 1995, dated 1998).
# Experiments:
# Assay type in all cases: biochemical
# [1] = biological target: T1, human FGF-1 (flg) receptor tyrosine kinase (Homo sapiens, UniProt P11362); experiment: FGF receptor tyrosine kinase assay; conditions: read-out: Inhibition of Protein Tyrosine Kinases, FGF, IC50
# T1 construct: a fragment of DNA that codes for the intracellular tyrosine kinase domain; made in house; host or cells: Sf9 insect cells (baculovirus), cell lysate
# Description: (§1) PDGF and FGF Receptor Tyrosine Kinase Assays
# (§2) Full length cDNAs for the mouse PDGF-β and human FGF-1 (flg) receptor tyrosine kinases were obtained from J. Escobedo and prepared as described in J. Biol. Chem., 262:1482-1487 (1991), and PCR primers were designed to amplify a fragment of DNA that codes for the intracellular tyrosine kinase domain. The fragment was melded into a baculovirus vector, cotransfected with AcMNPV DNA, and the recombinant virus isolated. SF9 insect cells were infected with the virus to overexpress the protein, and the cell lysate was used for the assay. […] Briefly, to each well was added 82.5 μL of incubation buffer containing 25 mM Hepes (pH 7.0), 150 mM NaCl, 0.1% Triton X-100, 0.2 mM PMSF, 0.2 mM Na3 VO4, 10 mM MnCl2, and 750 μg/mL of Poly (4:1) glutamate-tyrosine followed by 2.5 μL of inhibitor and 5 μL of enzyme lysate (7.5 μg/μL FGF-TK or 6.0 μg/μL PDGF-TK) to initiate the reaction. Following a 10 minute incubation at 25° C., 10 μL of γ^32 P-ATP (0.4 μCi plus 50 μM ATP) was added to each well and samples were incubated for an additional 10 minutes at 25° C. The reaction was terminated by the addition of 100 μL of 30% trichloroacetic acid (TCA) containing 20 mM sodium pyrophosphate and precipitation of material onto glass fiber filter mats (Wallac). […] Nonspecific activity was defined as radioactivity retained on the filters following incubation of samples with buffer alone (no enzyme). Specific enzymatic activity was defined as total activity (enzyme plus buffer) minus nonspecific activity.
# [2] = tested on: V-src kinase; experiment: V-src kinase assay; conditions: at 50 μM
# Description: (§3) V-src and C-src Kinase Assays
# (§4) V-src or C-src kinase is purified from baculovirus infected insect cell lysates using an antipeptide monoclonal antibody directed against the N-terminal 2-17 amino acids. The antibody, covalently linked to 0.65-μm latex beads, is added to a suspension of insect cell lysis buffer comprised of 150 mM NaCl, 50 mM Tris pH 7.5, 1 mM DTT, 1% NP-40, 2 mM EGTA, 1 mM sodium vanadate, 1 mM PMSF, 1 μg/mL each of leupeptin, pepstatin, and aprotinin. Insect cell lysate containing either the c-src or v-src protein is incubated with these beads for 3-4 hours at 4° C. with rotation. At the end of the lysate incubation, the beads are rinsed 3 times in lysis buffer, resuspended in lysis buffer containing 10% glycerol, and frozen. These latex beads are thawed, rinsed three times in assay buffer which is comprised of 40 mM tris pH 7.5, 5 mM MgCl2, and suspended in the same buffer. In a Millipore 96-well plate with a 0.65 μm polyvinylidine membrane bottom are added the reaction components: 10-μL v-src or c-src beads, 10 μL of 2.5 mg/mL poly GluTyr substrate, 5 μM ATP containing 0.2 μCi labeled ^32 P-ATP, 5μL DMSO containing inhibitors or as a solvent control, and buffer to make the final volume 125 μL. The reaction is started at room temperature by addition of the ATP and quenched 10 minutes later by the addition of 125 μL of 30% TCA, 0.1M sodium pyrophosphate for 5 minutes on ice. The plate is then filtered and the wells washed with two 250-μL aliquots of 15% TCA, 0.1M pyrophosphate. The filters are punched, counted in a liquid scintillation counter, and the data examined for inhibitory activity in comparison to a known inhibitor such as erbstatin. The method is described more fully in J. Med. Chem., 37:598-609 (1994).
# [3] = biological target: T2, mouse PDGF-β receptor tyrosine kinase (Mus musculus, UniProt P05622); experiment: PDGF receptor tyrosine kinase assay; conditions: for IC50: read-out: Inhibition of Protein Tyrosine Kinases, PDGF, IC50
# T2 construct: a fragment of DNA that codes for the intracellular tyrosine kinase domain; made in house; host or cells: Sf9 insect cells (baculovirus), cell lysate
# Description: as §1, §2
# [4] = biological target: T3, C-src kinase (Homo sapiens, UniProt P12931); experiment: C-src kinase assay; conditions: for inhibition at 50 µM: read-out: Inhibition of Protein Tyrosine Kinases, C-src, % Inhibition; for IC50: read-out: Inhibition of Protein Tyrosine Kinases, C-src, IC50
# T3 construct: made in house; host or cells: baculovirus-infected insect cells
# Description: as §3
# as §4, with “Insect cell lysate containing either the c-src or v-src protein is incubated with these beads for 3-4 hours at 4° C. with rotation.” left out
# T1 sequence (P11362 478-767 limits assumed): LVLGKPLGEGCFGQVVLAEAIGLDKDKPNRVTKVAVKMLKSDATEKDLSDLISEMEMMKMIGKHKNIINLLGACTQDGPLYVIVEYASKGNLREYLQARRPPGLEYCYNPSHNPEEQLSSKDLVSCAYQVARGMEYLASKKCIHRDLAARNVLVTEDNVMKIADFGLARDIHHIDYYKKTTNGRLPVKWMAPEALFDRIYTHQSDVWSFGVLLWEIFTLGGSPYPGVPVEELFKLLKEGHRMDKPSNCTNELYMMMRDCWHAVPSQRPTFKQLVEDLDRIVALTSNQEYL
# T3 sequence (P12931 whole entry): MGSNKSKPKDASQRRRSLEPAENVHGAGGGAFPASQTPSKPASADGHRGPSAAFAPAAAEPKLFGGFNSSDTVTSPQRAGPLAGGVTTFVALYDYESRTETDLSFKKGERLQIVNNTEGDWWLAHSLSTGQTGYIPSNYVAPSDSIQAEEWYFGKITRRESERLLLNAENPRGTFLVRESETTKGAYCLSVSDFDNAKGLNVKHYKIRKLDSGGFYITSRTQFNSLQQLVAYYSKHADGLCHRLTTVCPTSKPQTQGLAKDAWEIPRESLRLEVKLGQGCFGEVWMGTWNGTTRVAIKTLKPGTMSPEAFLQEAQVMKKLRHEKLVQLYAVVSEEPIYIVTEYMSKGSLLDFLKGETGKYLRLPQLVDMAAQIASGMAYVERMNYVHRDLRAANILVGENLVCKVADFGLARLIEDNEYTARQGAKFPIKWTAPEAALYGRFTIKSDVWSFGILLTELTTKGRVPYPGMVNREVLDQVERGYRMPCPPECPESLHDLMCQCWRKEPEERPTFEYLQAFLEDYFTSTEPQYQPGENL
# T2 sequence (P05622 599-961 limits assumed): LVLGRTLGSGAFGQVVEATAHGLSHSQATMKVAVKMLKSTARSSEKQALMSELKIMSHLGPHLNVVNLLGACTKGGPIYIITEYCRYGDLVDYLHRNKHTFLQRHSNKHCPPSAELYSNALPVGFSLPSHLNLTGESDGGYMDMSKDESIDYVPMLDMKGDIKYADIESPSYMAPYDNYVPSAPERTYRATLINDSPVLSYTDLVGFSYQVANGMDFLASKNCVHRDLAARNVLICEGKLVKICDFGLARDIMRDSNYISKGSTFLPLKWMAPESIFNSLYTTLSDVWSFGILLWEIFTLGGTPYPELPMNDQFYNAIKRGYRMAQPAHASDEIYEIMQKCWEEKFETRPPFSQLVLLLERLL
SMILES,IC50 [1],"Inhibition of Protein Tyrosine Kinases, V-src, % Inhibition [2]","inhibition at 50 µM ([3]; at 50 μM, read-out: Inhibition of Protein Tyrosine Kinases, PDGF, % Inhibition)",inhibition at 50 µM [4],IC50 [3],IC50 [4]
"Nc1ncc2cc(-c3c(Cl)cccc3Cl)c(N)nc2n1 [Example 1, 2,7-Diamino-6-(2,6-dichlorophenyl)-pyrido[2,3-d]pyrimidine]",2.99 µM,-2.4%,,,,
"CNc1nc2nc(N)ncc2cc1-c1ccc(OC)cc1 [Example 13, 6-(4-Methoxyphenyl)-N^7-methyl-pyrido[2,3-d]pyrimidine-2,7-diamine]",30.3 µM,21.2%,18.2%,15.9%,,
"CCN(CC)CCCNc1ncc2cc(-c3c(Cl)cccc3Cl)c(N)nc2n1 [Example 20, 7-Amino-6-(2,6-dichlorophenyl)-2-(3-diethylamino-propylamino)-pyrido[2,3-d]pyrimidine]",2.38 µM,51.7%,,,46.1 µM,0.748 µM
"Nc1ncc2cc(-c3ccccc3)c(N)nc2n1 [Example 81, 6-Phenyl-pyrido[2,3-d]pyrimidine-2,7-diamine]",,-20.3%,,67.5%,,
"Nc1ncc2cc(-c3cccc(Cl)c3Cl)c(N)nc2n1 [Example 83, 6-(2,3-Dichlorophenyl)-pyrido[2,3-d]pyrimidine-2,7-diamine]",1.98 µM,-9.8%,,53.6%,42.5 µM,
"COc1ccccc1-c1cc2cnc(N)nc2nc1NC(=O)NC(C)(C)C [Example 101, 1-[2-Amino-6-(2-methoxy-phenyl)-pyrido[2,3-d]pyrimidin-7-yl]-3-tert-butyl-urea]",11.2 µM,,,,4.48 µM,19.3 µM
"COc1cccc(-c2cc3cnc(N)nc3nc2NC(=O)NC(C)(C)C)c1 [Example 103, 1-[2-Amino-6-(3-methoxy-phenyl)-pyrido[2,3-d]pyrimidin-7-yl]-3-tert-butyl-urea]",0.3 µM,,,,19.6 µM,36.4 µM
"CC(C)(C)NC(=O)Nc1nc2nc(N)ncc2cc1-c1c(Cl)cccc1Br [Example 105, 1-[2-Amino-6-(2-bromo-6-chloro-phenyl)-pyrido[2,3-d]pyrimidin-7-yl]-3-tert-butyl-urea]",0.181 µM,,,,0.618 µM,0.214 µM
"CCCS(=O)(=O)Nc1nc2nc(N)ncc2cc1-c1c(Cl)cccc1Cl [Example 106, Propane-1-sulfonic acid [2-amino-6-(2,6-dichlorophenyl)-pyrido[2,3-d]pyrimidin-7-yl]-amide]",0.361 µM,,,,4.8 µM,0.236 µM
"CC(C)(C)NC(=O)Nc1nc2nc(N)ncc2cc1-c1cccnc1 [Example 108, 1-(2-Amino-6-pyridin-3-yl-pyrido[2,3-d]pyrimidin-7-yl)-3-tert-butyl-urea]",4.48 µM,,,,13.7 µM,5.66 µM
"CC(C)(C)NC(=O)Nc1nc2nc(N)ncc2cc1-c1ccncc1 [Example 110, 1-(2-Amino-6-pyridin-4-yl-pyrido[2,3-d]pyrimidin-7-yl)-3-tert-butyl-urea]",12.8 µM,,,27.5%,11.5 µM,
"CN1CCN(CCCNc2ncc3cc(-c4c(Cl)cccc4Cl)c(NC(=O)NC45CC6CC(CC(C6)C4)C5)nc3n2)CC1 [Example 117, 1-Adamantan-1-yl-3-{6-(2,6-dichlorophenyl)-2-[3-(4-methyl-piperazin-1-yl)-propylamino]-pyrido[2,3-d]pyrimidin-7-yl}-urea]",0.135 µM,,,100%,2.79 µM,
"Cc1cc(C)c(C)c(-c2cc3cnc(NCCCN4CCN(C)CC4)nc3nc2N)c1C [Example 120, N^2-[3-(4-Methyl-piperazin-1-yl)-propyl]-6-(2,3,5,6-tetramethyl-phenyl)-pyrido[2,3-d]pyrimidine-2,7-diamine]",3.27 µM,,,,3.84 µM,42.7 µM
